The source of these data is patent EP4755886A1 (Chengdu Chipscreen Pharmaceutical Ltd., priority 2023, dated 2025).

What is called AUC(0-t) is the area under the concentration-time curve up to a stated or last time point. Low values mean low exposure, high ones high exposure. For orientation: Cmax means the peak of the concentration-time curve.

One data set deals with wild-type HCT-116 cells. The experiment in a line: Cell proliferation (MTS), wild-type HCT-116. It is filed as cell-based. The conditions noted are these: Homo sapiens, 240 h; wild-type HCT-116, 10 days with compound, MTS reading; read-out: IC50 HCT116 WT. In short, it runs like this:
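Wild-type HCT-116 cells were seeded at 100 cells/well in McCoy's 5A/10% FBS. From day 1 they were treated with compound in 3-fold dilutions (initial 20 µM, 8 points) for 10 days at 37° C. Proliferation was read by MTS on day 11, and IC50 was obtained from a four-parameter logistic fit.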

The subject of another data set is MTAP^-/- HCT-116 cells. Kind of data set: Cell proliferation (MTS), MTAP-/- HCT-116. It is filed as cell-based, human. The following applies: for Selectivity: HCT116 WT IC50 relative to HCT116 MTAP-/- IC50; for IC50: Homo sapiens, 240 h, MTAP-/- HCT-116, 10 days with compound, MTS reading, read-out: IC50 HCT116 MTAP-/-. In short, it runs like this: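 MTAP-/- (CRISPR/Cas9 biallelic knockout) or wild-type HCT-116 cells seeded at 100 cells/well, treated next day with 8-point 3-fold dilutions (top 20 µM) for 10 days at 37 °C, 5% CO2. Viability read by MTS; IC50 from four-parameter logistic fit of inhibition rate vs log concentration.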

The nature of a further data set: PK experiment in mice. The conditions noted are these: female, BALB/c, mouse, plasma, po, 10 mg/kg.

Regarding `CN(C(=O)c1ccc2nc(N)c3cnn(C)c3c2c1)C1COc2cc(C#Cc3cnn(C(F)F)c3)ccc21` (stereo not drawn) [Compound 30, 4-amino-N-(6-((1-(difluoromethyl)-1H-pyrazol-4-yl)ethynyl)-2,3-dihydrobenzofuran-3-yl)-N,1-dimethyl-1H-pyrazolo[4,3-c]quinoline-8-carboxamide], in the data set on wild-type HCT-116 cells, the IC50 amounted to 1750 nM. Also, in the data set on MTAP^-/- HCT-116 cells, the Selectivity worked out at 201 and the IC50 amounted to 8.7 nM. In addition, in the data set “PK experiment in mice”, the AUC(0-t) came out at 12600 ± 1360 ng·h/mL and the Cmax stood at 984 ± 123 ng/mL.
For `CN(C(=O)c1cc2c3c(c(N)nc2cc1Cl)COC3)[C@@H]1COc2cc(C#Cc3cccnc3F)ccc21` [Compound 61A, (S)-4-amino-7-chloro-N-(6-((2-fluoropyridin-3-yl)ethynyl)-2,3-dihydrobenzofuran-3-yl)-N-methyl-1,3-dihydrofuro[3,4-c]quinoline-8-carboxamide], in that order: 640 nM, 91, 7 nM, 22200 ± 2710 ng·h/mL and 2080 ± 299 ng/mL.
For `CN(C(=O)c1cc2c3c(c(N)nc2cc1Cl)COC3)[C@@H]1COc2cc(C#Cc3cnc4n3CCCC4)ccc21` [Compound 74A, (S)-4-amino-7-chloro-N-methyl-N-(6-((5,6,7,8-tetrahydroimidazo[1,2-a]pyridin-3-yl)ethynyl)-2,3-dihydrobenzofuran-3-yl)-1,3-dihydrofuro [3,4-c] quinoline-8-carb oxamide] the same measures were 472 nM, 175, 2.7 nM, 14500 ± 1760 ng·h/mL and 2810 ± 780 ng/mL.
For `CN(C(=O)c1cc2c3c(c(N)nc2cc1Cl)COC3)[C@@H]1COc2cc(C#Cc3cnc4n3CCC4)ccc21` [Compound 75A, (S)-4-amino-7-chloro-N-(6-((6,7-dihydro-5H-pyrrolo[1,2-a]imidazol-3-yl)ethynyl) -2,3-dihydrobenzofuran-3-yl)-N-methyl-1,3-dihydrofuro[3,4-c]quinoline-8-carbo xamide], in that order: 424 nM, 106, 4 nM, 27000 ± 4260 ng·h/mL and 5010 ± 846 ng/mL.
For `CN(C(=O)c1cc2c3c(c(N)nc2cc1Cl)COC3)[C@@H]1COc2cc(C#Cc3cnc4cnn(C)c4c3)ccc21` [Compound 76A, (S)-4-amino-7-chloro-N-methyl-N-(6-((1-methyl-1H-pyrazolo[4,3-b]pyridin-6-yl)ethynyl)-2,3-dihydrobenzofuran-3-yl)-1,3-dihydrofuro[3,4-c]quinoline-8-carboxamide], the IC50 in the data set on wild-type HCT-116 cells was 167 nM. Besides, in the data set on MTAP^-/- HCT-116 cells, the Selectivity is 56 and the IC50 came to 3 nM.
Take `CN(C(=O)c1cc2c3c(c(N)nc2cc1Cl)COC3)[C@@H]1COc2cc(C#Cc3ccnn3C)ccc21` [Compound 78A, (S)-4-amino-7-chloro-N-methyl-N-(6-((1-methyl-1H-pyrazol-5-yl)ethynyl)-2,3-dihydrobenzofuran-3-yl)-1,3-dihydrofuro[3,4-c]quinoline-8-carboxamide]: in the data set on wild-type HCT-116 cells, the IC50 was 512 nM. Further, in the data set with MTAP^-/- HCT-116 cells, the Selectivity amounted to 131 and the IC50 turned out to be 3.9 nM.
As for `[2H]C([2H])([2H])N(C(=O)c1cc2c(cc1F)nc(N)c1cnn(C)c12)[C@@H]1COc2cc(C#Cc3cnn(C)c3)ccc21` [Compound 79A, (S)-4-amino-7-fluoro-1-methyl-N-(methyl-D3)-N-(6-((1-methyl-1H-pyrazol-4-yl)ethynyl)-2,3-dihydrobenzofuran-3-yl)-1H-pyrazolo[4,3-c]quinoline-8-carboxamide], in the data set on wild-type HCT-116 cells, the IC50 was determined as 304 nM. Moreover, in the data set with MTAP^-/- HCT-116 cells, the Selectivity came out at 152 and the IC50 turned out to be 2 nM.
As for `CN(C(=O)c1cc2c3c(c(N)nc2cc1F)COC3)[C@@H]1COc2cc(C#Cc3cnc4n3CCCC4)ccc21` [Compound 80A, (S)-4-amino-7-fluoro-N-methyl-N-(6-((5,6,7,8-tetrahydroimidazo[1,2-a]pyridin-3-yl)ethynyl)-2,3-dihydrobenzofuran-3-yl)-1,3-dihydrofuro [3,4-c] quinoline-8-carbo xamide], the IC50 with wild-type HCT-116 cells came out at 1510 nM. For the same compound, in the data set with MTAP^-/- HCT-116 cells, the Selectivity came to 251 and the IC50 came to 6 nM.
As to `Cc1cn(C)nc1C#Cc1ccc2c(c1)OC[C@H]2N(C)C(=O)c1cc2c(cc1Cl)nc(N)c1cnn(C)c12` [Compound 81A, (S)-4-amino-7-chloro-N-(6-((1,4-dimethyl-1H-pyrazol-3-yl)ethynyl)-2,3-dihydrobenzofuran-3-yl)-N,1-dimethyl-1H-pyrazolo[4,3-c]quinoline-8-carboxamide], the IC50 amounted to 122 nM with wild-type HCT-116 cells and 2.7 nM with MTAP^-/- HCT-116 cells. Further, the Selectivity in the data set with MTAP^-/- HCT-116 cells is recorded as 45.
For `Cc1cc2nc(N)c3cnn(C)c3c2cc1C(=O)N(C)[C@@H]1COc2cc(C#Cc3cnn(C(F)F)c3)ccc21` [Compound 83A], in that order: 62 nM, 1 nM and 62.
With `CN(C(=O)c1cc2c(cc1F)nc(N)c1cnn(C)c12)[C@@H]1COc2cc(C#Cc3cnc4n3CCC4)ccc21` [Compound 84A, (S)-4-amino-N-(6-((6,7-dihydro-5H-pyrrolo[1,2-a]imidazol-3-yl)ethynyl)-2,3-dihydrobenzofuran-3-yl)-7-fluoro-N,1-dimethyl-1H-pyrazolo[4,3-c]quinoline-8-carbo xamide], in the data set on wild-type HCT-116 cells, the IC50 was found to be 143 nM. Moreover, in the data set on MTAP^-/- HCT-116 cells, the Selectivity turned out to be 55 and the IC50 stood at 2.6 nM.
For `CN(C(=O)c1cc2c(cc1F)nc(N)c1cnn(C)c12)C1COCc2cc(C#Cc3cnn(C4CC4)c3)ccc21` (stereo not drawn) [Compound 85, 4-amino-N-(7-((1-cyclopropyl-1H-pyrazol-4-yl)ethynyl)isochroman-4-yl)-7-fluoro -N,1-dimethyl-1H-pyrazolo[4,3-c]quinoline-8-carboxamide], in that order: 165 nM, 55 and 3 nM.
As to `CN(C(=O)c1cc2c3c(c(N)nc2cc1Cl)COC3)C1COCc2cc(C#Cc3cnn(C4CC4)c3)ccc21` (stereo not drawn) [Compound 87, 4-amino-7-chloro-N-(7-((1-cyclopropyl-1H-pyrazol-4-yl)ethynyl)isochroman-4-yl) -N-methyl-1,3-dihydrofuro[3,4-c]quinoline-8-carboxamide], the IC50 in the data set with wild-type HCT-116 cells is 504 nM. Also, in the data set with MTAP^-/- HCT-116 cells, the Selectivity is given as 56 and the IC50 worked out at 9 nM.
On to `CN(C(=O)c1cc2c3c(c(N)nc2cc1Cl)COC3)[C@@H]1COc2cc(C#Cc3cnn4c3CCC4)ccc21` [Compound 88A, (S)-4-amino-7-chloro-N-(6-((5,6-dihydro-4H-pyrrolo[1,2-b]pyrazol-3-yl)ethynyl)-2,3-dihydrobenzofuran-3-yl)-N-methyl-1,3-dihydrofuro[3,4-c]quinoline-8-carbox amide], for which the IC50 came out at 777 nM in the data set on wild-type HCT-116 cells and 4.5 nM with MTAP^-/- HCT-116 cells. For the same compound, in the data set on MTAP^-/- HCT-116 cells, the Selectivity was determined as 173.
For `CN(C(=O)c1cc2c(cc1F)nc(N)c1cnn(C)c12)[C@@H]1COc2cc(C#Cc3cnn(C4CCC4)c3)ccc21` [Compound 89A, (S)-4-amino-N-(6-((1-cyclobutyl-1H-pyrazol-4-yl)ethynyl)-2,3-dihydrobenzofuran-3-yl)-7-fluoro-N,1-dimethyl-1H-pyrazolo [4,3-c] quinoline-8-carboxamide], in that order: 263 nM, 3 nM and 88.
For `CN(C(=O)c1cc2c3c(c(N)nc2cc1Cl)COC3)[C@@H]1COc2cc(C#Cc3cnn(C4CCC4)c3)ccc21` [Compound 90A, (S)-4-amino-7-chloro-N-(6-((1-cyclobutyl-1H-pyrazol-4-yl)ethynyl)-2,3-dihydrobenzofuran-3-yl)-N-methyl-1,3-dihydrofuro[3,4-c]quinoline-8-carboxamide], in that order: 1180 nM, 12 nM and 98.
With `CN(C(=O)c1ccc2nc(N)c3cnn(C)c3c2c1)C1COc2cc(C3CC3)ccc21` (stereo not drawn) [Reference Example 3, reference compound], in the data set “PK experiment in mice”, the area under the curve AUC(0-t) was 5130 ± 2920 ng·h/mL and the Cmax is 741 ± 601 ng/mL.
In “PK experiment in mice”, `CN(C(=O)c1cc2c3c(c(N)nc2cc1Cl)COC3)[C@@H]1COc2cc(Br)ccc21` [Reference Example 4, reference compound] registered an AUC(0-t) of 3270 ± 588 ng·h/mL and a Cmax of 649 ± 45 ng/mL.
